These results are taken from US5670506A, “Halogen, isothiocyanate or azide substituted xanthines” (Cell Therapeutics, Inc., priority 1993, dated 1997).

Holding throughout (assay type): cell-based
Assay [1] deals with Saccharomyces cervisiae. Put plainly: yeast growth inhibition. Conditions: FIG. 6. As to the method:
This assay measures anti-yeast and anti-fungal activity of the drugs tested.
Some of the inventive compounds are effective for inhibiting yeast cell growth. This effect can be assayed by measuring growth of the yeast strain Saccharomyces cervisiae. A control yeast stain Saccharomyces cervisiae (BIO 101, Inc.) is grown overnight in YEPD broth at 30° C. An one to hundred dilution of the yeast culture is made with fresh YEPD broth. 100 μl Aliquots of the diluted culture are distributed into 96-wells titer plates. 100 μl Aliquots of drug is diluted in YEPD broth were then added to the wells. The titer plates are incubated at room temperature with continuous shaking. The cell density of the individual cultures are determined using a mircoplate reader with a A630 filter. The A630 of the individual yeast cultures are compared to control samples without adding drug. This assay is predictive of direct antimicrobial, particularly yeast and fungal, activity of the drugs studied.
This example illustrates the effects of CT2501R (a reference compound), CT1529, CT1589 and CT1519 (see Table 1 for chemical names) on yeast growth (Saccharomyces cervisiae) in the presence or absence of drug. This assays measures anti-yeast and anti-fungal activity of the drugs tested.

Assay [2] has as its system mast cell line (PT-18). Put plainly: total PA mass in mast cell line stimulated by IgE and DNP. Conditions: FIG. 13; IgE and DNP stimulation, in words.
Assay [3] has as its system Ras-transformed 3T3 cells (IL-1-induced signal transduction via the Type I IL-1 receptor). Nature of the assay: DAG and PA generated after stimulation of Ras-transformed 3T3 cells with IL-1β. The note with it: FIGS. 11 and 12, IL-1β stimulation. An excerpt:
FIGS. 11 and 12 show the effects of CT1595 on the amount of DAG (diacylglycerol) (FIG. 11) and PA (Phosphatidic acid) (FIG. 12) generated at different times after stimulation of Ras-transformed 3T3 cells with IL-1β. CT1595 is a potent drug to inhibit enzyme activity that generates PA and then DAG by inhibiting IL-1-induced signal transduction, through this second messenger pathway, via the Type I IL-1 receptor. The inhibiting activity was not in a dose-response manner, indication that the IC50 concentration for inhibiting cellular second messenger signaling is probably below 500 nM.
One in vitro assay measures inhibition of the relevant enzymes lysophosphatidic acid acyltransferase (LPAAT) and phosphatidic acid phosphoryl hydrolase (PAPH). […] It is important to note that the assay method permits discrimination between various forms of PA and DAG so that those relevant to the pathway affected by the (R) or (S) compounds of the invention can be measured directly. […] Thus, the relevant unsaturated (non-arachidonic) PA and DAG subspecies may be detected. […]

pIC50: −log10 of the molar value.

As for `Cn1cnc2c1c(=O)n(CCCCC(=O)CCl)c(=O)n2C` [CT1595, 1-(6-chloro-5-oxohexyl)-3,7-dimethylxanthine], in assay [1], the yeast growth inhibition entry is given as “strongly inhibited yeast growth”. In addition, in assay [2], the “IC50 for accumulation of PA” value is “low nanomolar range”. The “inhibition of DAG and PA generation” value in assay [3] (in words) is on record as “the overall signal is being significantly inhibited”. The pIC50 (commonly the IC50 on a negative log10 scale, so that one unit is a factor of ten) in assay [3] (Mus musculus, NIH3T3, "probably" below, read-out: IC50 for inhibiting cellular second messenger signaling) is greater than 6.30.
